Legend:
Assay type in all cases: cell-based, Channel catfish virus (CCV, Ictalurid herpesvirus 1)
[1] = tested on: CCV (strain VR-665) in CCO cells; test: Antiviral activity screening assay, CCV gene expression by RT-qPCR; conditions: maximum safe concentration, added 1 h after CCV infection, 36 h
Procedure: To test the anti-CCV effect of tested compounds in the preliminary screening, CCO cells were seeded in 24-well plates and cultured to reach approximately 90% confluence in each well at 28°C. Subsequently, the cells were infected with the CCV at 10^3 TCID50/ml at 28°C for 1 h. After that, the cell culture medium was replaced using an isopycnic DMEM medium containing the maximum safe concentration of indicated compounds. CCV-infected cells treated with DMSO served as a negative control, whereas CCV-infected cells treated with acyclovir (2.5 μg/mL) served as a positive control ([33]). […] According to the percentage inhibition results, we further detected the antiviral activity of kaempferol at maximum safe concentration by viral cytopathic effects (CPE) and western blot analysis.
(§1) For RT-qPCR, the total RNA was isolated from CCV-infected cells using RnaExTM (Trizol)^a reagent (GENERAY, China), and reversed transcribed applying a HiScript III RT SuperMix with gDNA wiper (Vazyme, China) following the manufacturer’s instructions. Quantitative PCR was performed with a LightCycler 96 Real-Time PCR Detection System (Roche, USA) using ChamQ Universal SYBR qPCR Master Mix (Vazyme, China) with the following cycle conditions: 95°C for 30 s, followed by 40 cycles of 95°C for 10 s and 60°C for 30 s. […] Fold changes of the selected gene vs 18 s (internal reference) were calculated by the 2^−△△Ct method. […]

[2] = tested on: CCV-induced CPE in CCO cells; test: CPE reduction assay
Procedure: To test the anti-CCV effect of tested compounds in the preliminary screening, CCO cells were seeded in 24-well plates and cultured to reach approximately 90% confluence in each well at 28°C. Subsequently, the cells were infected with the CCV at 10^3 TCID50/ml at 28°C for 1 h. After that, the cell culture medium was replaced using an isopycnic DMEM medium containing the maximum safe concentration of indicated compounds. CCV-infected cells treated with DMSO served as a negative control, whereas CCV-infected cells treated with acyclovir (2.5 μg/mL) served as a positive control ([33]). After 36 h treatment, cell lysates were collected to test the CCV gene expression by the RT-qPCR, and the percentage inhibition of CCV infection by individual compound was calculated. According to the percentage inhibition results, we further detected the antiviral activity of kaempferol at maximum safe concentration by viral cytopathic effects (CPE) and western blot analysis.
For analyzing the CPE reduction of viral infected CCO cells by kaempferol, the CCO cells were seeded in 24-well plates and cultured overnight at 28°C before infection. Then, the monolayer cells were infected with CCV at 10^3 TCID50/ml for 1 h. Subsequently, the infected cells were treated with kaempferol at different concentrations (2.5, 5, 7.5, 10, 12.5, and 15 μg/mL), respectively. […]

[3] = tested on: CCV in CCO cells; test: Virus attachment assay; conditions: kaempferol 15 μg/mL, 24 h
Procedure: The attachment assay was performed as previously described, with slight modifications ([35]). Briefly, monolayer CCO cells seeded in 24-well plates were pre-cooled at 4°C for 30 min, and then the pre-cooled cells were treated with kaempferol (15 μg/mL) or left untreated for 2 h at 4°C. Cells were then incubated with CCV at 4°C for 1 h to allow virus attachment but prevent viral internalization. Thereafter, the compound and unattached virus were washed with ice-cold PBS and a fresh DMEM medium was added. After incubated at 28°C for 24 h, the cells were collected for subsequent experiments, including RT-qPCR and viral titer.
Measurement of viral titer was described previously ([5]). […]
as §1

Which “inhibitory rate of CCV ORF 39 and 59 genes” value [1] does the source give for `O=c1c(O)c(-c2ccc(O)cc2)oc2cc(O)cc(O)c12` [Kaempferol] here?
The value was 99.9%.

And the “CCV-induced CPE” value ([2]; kaempferol 10–15 μg/mL, until 36 h)?
The value was “no obvious CPE”.

And the “CPE induced by CCV infection” value ([2]; maximum safe concentration (47.53 μg/mL), 36 h post-infection)?
The value was “significantly reduced CPE”.

And the “down-regulation of viral attachment (CCV ORF 39/ORF 59, RT-qPCR) vs CCV control” value ([3]; 2 h at 4°C)?
The value was “more than 50%”.

What about the “production of intracellular virus (virus titer), attachment assay” value [3] of the same compound?
Its value is “significantly reduced”.

Source: paper PMC10725991, “Kaempferol is a novel antiviral agent against channel catfish virus infection through blocking viral attachment and penetration in vitro” (Frontiers in Veterinary Science, 2023)
